Conditions: as compared to prazoles such as panto prazole sodium and omeprazole sodium

COCCCOc1ccnc(C[S+]([O-])c2nc3ccccc3[n-]2)c1C.[Na+] (stereo not shown) [Form X, 2-[[[4-(3-methoxypropoxy)-3-methyl-2-pyridinyl]-methyl]sulfinyl]-1H-benzimidazole sodium]
chemical stability such as thermo stability and light stability: better chemical stability

Reference: patent US20050234103A1, “Crystalline forms of rabeprazole sodium” (priority 2002, published 2005)
